From USRE48335E1, “Polymyxin derivatives as antimicrobial compounds” (priority 2014, dated 2020)
≈ marks a conversion by molar mass, not a printed value. Read-outs that look alike come from different tables or passages of the source. Positions of bridges follow the written chain, without caps; N, C: chain ends. Non-standard residues stand in square brackets, D forms with d. Residues, ends and D or L forms follow the SMILES beside them. *: point of attachment. Benzoyl(4-(4-Cl-Ph)) = O=C(c1ccc(-c2ccc(Cl)cc2)cc1)*; Benzoyl(3-CF3) = O=C(c1cccc(C(F)(F)F)c1)*; X21 = O=C(c1ccc(C(F)(F)F)c(Cl)c1)*; X20 = Cc1cc(C(=O)*)ccc1C(F)(F)F; X15 = O=C(c1ccc(Cl)c(F)c1)*; dNle = CCCC[C@@H](N)C(=O)O; Nonanoyl = CCCCCCCCC(=O)*; Dab = NCC[C@H](N)C(=O)O; Abu = CC[C@H](N)C(=O)O; Dap = NC[C@H](N)C(=O)O; PhAc = O=C(Cc1ccccc1)*

How the values were obtained:
[1] = tested on: Acinetobacter baumannii
Outline: (§1)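 Lipopeptides, as trifluoroacetate salts, tested for MIC in CAMHB by CLSI broth microdilution, with polymyxin B (sulphate) as comparator.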

[2] = tested on: Enterobacter cloacae
Outline: as §1

[3] = tested on: Klebsiella pneumoniae
Outline: as §1

[4] = tested on: Pseudomonas aeruginosa
Outline: as §1

[5] = tested on: P. aeruginosa ATCC 27853; experiment: In vivo efficacy in mouse blood infection model (neutropenic Swiss mice); conditions: compound, free base 4 mg/kg intravenously 2 h after inoculation, blood at 4 h
Outline: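 Activity expressed as Δlog10 CFU/mL blood, treated minus saline control, 4 h after a single 4 mg/kg (free base) i.v. dose given 2 h post-infection. Bloodstream infection from i.v. early log-phase inoculum in Swiss mice made neutropenic by i.p. cyclophosphamide on days −4 (150 mg/kg) and −1 (100 mg/kg).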

Compound	MIC [1] [µg/mL]	Minimum inhibitory concentration, Ab A ATCC 17978 [1] [µg/mL]	Minimum inhibitory concentration, Ab ATCC 19606 [1] [µg/mL]	Minimum inhibitory concentration, Ab FADDI-AB034 [1] [µg/mL]	Minimum inhibitory concentration, Ec FADDI-EC001 [2] [µg/mL]	Minimum inhibitory concentration, Ec FADDI-EC003 [2] [µg/mL]	Minimum inhibitory concentration, Ec FADDI-EC006 [2] [µg/mL]	MIC [3] [µg/mL]	MIC [4] [µg/mL]	Minimum inhibitory concentration, Pa ATCC 27853 [4] [µg/mL]	Minimum inhibitory concentration, Pa FADDI-PA022 [4] [µg/mL]	Minimum inhibitory concentration, Pa FADDI-PA025 [4] [µg/mL]	Δ log (Treated-Control at 4 h) [5] [log10 CFU/mL]	other results
CC[C@@H]1NC(=O)[C@@H](CC(C)C)NC(=O)[C@H](CCN)NC(=O)[C@@H](NC(=O)[C@H](CN)NC(=O)[C@@H](NC(=O)[C@H](CCN)NC(=O)c2ccc(C(F)(F)F)c(C)c2)[C@@H](C)O)CCNC(=O)[C@H]([C@@H](C)O)NC(=O)[C@H](CCN)NC(=O)[C@H](CCN)NC1=O [Compound 119] (X20-[Dab]T[Dap][Dab][Dab][dL][Abu][Dab][Dab]T; lactam 4-C)	1 (≈ 0.852 µM)	0.5 (≈ 0.426 µM)	1 (≈ 0.852 µM)	0.25 (≈ 0.213 µM)	<0.125	<0.125	0.25 (≈ 0.213 µM)	<0.125	0.5 (≈ 0.426 µM)	0.5 (≈ 0.426 µM)	0.5 (≈ 0.426 µM)	2 (≈ 1.7 µM)	−3.40	–
CCCC[C@H]1NC(=O)[C@H](CCN)NC(=O)[C@@H](NC(=O)[C@H](CN)NC(=O)[C@@H](NC(=O)[C@H](CCN)NC(=O)c2cccc(C(F)(F)F)c2)[C@@H](C)O)CCNC(=O)[C@H]([C@@H](C)O)NC(=O)[C@H](CCN)NC(=O)[C@H](CCN)NC(=O)[C@H](CC)NC1=O [Compound 121] ({Benzoyl(3-CF3)}-[Dab]T[Dap][Dab][Dab][dNle][Abu][Dab][Dab]T; lactam 4-C)	0.5 (≈ 0.431 µM)	0.5 (≈ 0.431 µM)	0.5 (≈ 0.431 µM)	0.5 (≈ 0.431 µM)	0.25 (≈ 0.216 µM)	0.25 (≈ 0.216 µM)	0.25 (≈ 0.216 µM)	0.25 (≈ 0.216 µM)	0.5 (≈ 0.431 µM)	0.5 (≈ 0.431 µM)	1 (≈ 0.863 µM)	2 (≈ 1.73 µM)	−2.81	–
CC[C@@H]1NC(=O)[C@@H](CC(C)C)NC(=O)[C@H](CCN)NC(=O)[C@@H](NC(=O)[C@H](CN)NC(=O)[C@@H](NC(=O)[C@H](CCN)NC(=O)c2ccc(Cl)c(F)c2)[C@@H](C)O)CCNC(=O)[C@H]([C@@H](C)O)NC(=O)[C@H](CCN)NC(=O)[C@H](CCN)NC1=O [Compound 107] (X15-[Dab]T[Dap][Dab][Dab][dL][Abu][Dab][Dab]T; lactam 4-C)	2 (≈ 1.75 µM)	0.5 (≈ 0.437 µM)	2 (≈ 1.75 µM)	0.25 (≈ 0.219 µM)	0.25 (≈ 0.219 µM)	0.25 (≈ 0.219 µM)	0.25 (≈ 0.219 µM)	0.25 (≈ 0.219 µM)	0.5 (≈ 0.437 µM)	0.5 (≈ 0.437 µM)	0.5 (≈ 0.437 µM)	2 (≈ 1.75 µM)	−2.98	–
CC(C)C[C@H]1NC(=O)[C@H](CCN)NC(=O)[C@@H](NC(=O)[C@H](CCN)NC(=O)[C@@H](NC(=O)[C@H](CCN)NC(=O)Cc2ccccc2)[C@@H](C)O)CCNC(=O)[C@H]([C@@H](C)O)NC(=O)[C@H](CCN)NC(=O)[C@H](CCN)NC(=O)[C@H]([C@@H](C)O)NC1=O [Compound 30] (PhAc-[Dab]T[Dab][Dab][Dab][dL]T[Dab][Dab]T; lactam 4-C)	–	–	–	–	–	–	–	–	–	–	–	–	−0.39	MIC ([1]; A. baumannii ATCC 19606): 32 µg/mL (≈ 28.2 µM); Minimum inhibitory concentration, Ab A ATCC 17978 ([1]; Acinetobacter baumannii ATCC 17978, broth microdilution in CAMHB): 32 µg/mL (≈ 28.2 µM); Minimum inhibitory concentration, Ab ATCC 19606 ([1]; Acinetobacter baumannii ATCC 19606, broth microdilution in CAMHB): 32 µg/mL (≈ 28.2 µM); Minimum inhibitory concentration, Ab FADDI-AB034 ([1]; Acinetobacter baumannii FADDI-AB034, broth microdilution in CAMHB): 32 µg/mL (≈ 28.2 µM); Minimum inhibitory concentration, Ec FADDI-EC001 ([2]; Enterobacter cloacae FADDI-EC001, broth microdilution in CAMHB): 2 µg/mL (≈ 1.76 µM); Minimum inhibitory concentration, Ec FADDI-EC003 ([2]; Enterobacter cloacae FADDI-EC003, broth microdilution in CAMHB): 2 µg/mL (≈ 1.76 µM); Minimum inhibitory concentration, Ec FADDI-EC006 ([2]; Enterobacter cloacae FADDI-EC006, broth microdilution in CAMHB): 4 µg/mL (≈ 3.52 µM); MIC ([3]; K. pneumoniae FADDI-KP032): 1 µg/mL (≈ 0.881 µM); MIC ([4]; P. aeruginosa ATCC 27853): 1 µg/mL (≈ 0.881 µM); Minimum inhibitory concentration, Pa ATCC 27853 ([4]; Pseudomonas aeruginosa ATCC 27853, broth microdilution in CAMHB): 1 µg/mL (≈ 0.881 µM); Minimum inhibitory concentration, Pa FADDI-PA022 ([4]; Pseudomonas aeruginosa FADDI-PA022, broth microdilution in CAMHB): 1 µg/mL (≈ 0.881 µM); Minimum inhibitory concentration, Pa FADDI-PA025 ([4]; Pseudomonas aeruginosa FADDI-PA025, broth microdilution in CAMHB): >32 µg/mL
CC[C@@H]1NC(=O)[C@@H](CC(C)C)NC(=O)[C@H](CCN)NC(=O)[C@@H](NC(=O)[C@H](CN)NC(=O)[C@@H](NC(=O)[C@H](CCN)NC(=O)c2ccc(C(F)(F)F)c(Cl)c2)[C@@H](C)O)CCNC(=O)[C@H]([C@@H](C)O)NC(=O)[C@H](CCN)NC(=O)[C@H](CCN)NC1=O [Compound 115] (X21-[Dab]T[Dap][Dab][Dab][dL][Abu][Dab][Dab]T; lactam 4-C)	0.5 (≈ 0.419 µM)	0.5 (≈ 0.419 µM)	0.5 (≈ 0.419 µM)	0.5 (≈ 0.419 µM)	0.25 (≈ 0.209 µM)	0.25 (≈ 0.209 µM)	0.25 (≈ 0.209 µM)	0.125 (≈ 0.105 µM)	1 (≈ 0.838 µM)	1 (≈ 0.838 µM)	0.5 (≈ 0.419 µM)	1 (≈ 0.838 µM)	−2.71	–
CCCCCCCCC(=O)N[C@@H](CCN)C(=O)N[C@H](C(=O)N[C@@H](CN)C(=O)N[C@H]1CCNC(=O)[C@H]([C@@H](C)O)NC(=O)[C@H](CCN)NC(=O)[C@H](CCN)NC(=O)[C@H](CC)NC(=O)[C@@H](CC(C)C)NC(=O)[C@H](CCN)NC1=O)[C@@H](C)O [Compound 59] (Nonanoyl-[Dab]T[Dap][Dab][Dab][dL][Abu][Dab][Dab]T; lactam 4-C)	2 (≈ 1.77 µM)	1 (≈ 0.887 µM)	2 (≈ 1.77 µM)	0.5 (≈ 0.443 µM)	1 (≈ 0.887 µM)	1 (≈ 0.887 µM)	0.5 (≈ 0.443 µM)	<0.125	1 (≈ 0.887 µM)	1 (≈ 0.887 µM)	2 (≈ 1.77 µM)	2 (≈ 1.77 µM)	−2.82	–
CC(C)C[C@H]1NC(=O)[C@H](CCN)NC(=O)[C@@H](NC(=O)[C@H](CN)NC(=O)[C@@H](NC(=O)[C@H](CCN)NC(=O)c2ccc(-c3ccc(Cl)cc3)cc2)[C@@H](C)O)CCNC(=O)[C@H]([C@@H](C)O)NC(=O)[C@H](CCN)NC(=O)[C@H](CCN)NC(=O)[C@H](C)NC1=O [Compound 144] ({Benzoyl(4-(4-Cl-Ph))}-[Dab]T[Dap][Dab][Dab][dL]A[Dab][Dab]T; lactam 4-C)	–	–	–	–	–	–	–	–	–	–	–	–	−2.98	MIC ([1]; A. baumannii ATCC 19606): 1 µg/mL (≈ 0.842 µM); Minimum inhibitory concentration (MIC), Ab ATCC 17978 ([1]; Acinetobacter baumannii ATCC 17978, broth microdilution in CAMHB, TFA salt): 1 µg/mL; Minimum inhibitory concentration (MIC), Ab ATCC 19606 ([1]; Acinetobacter baumannii ATCC 19606, broth microdilution in CAMHB, TFA salt): 1 µg/mL; Minimum inhibitory concentration (MIC), Ab FADDI-AB034 ([1]; Acinetobacter baumannii FADDI-AB034, broth microdilution in CAMHB, TFA salt): 0.5 µg/mL; Minimum inhibitory concentration (MIC), Ec FADDI-EC001 ([2]; Enterobacter cloacae FADDI-EC001, broth microdilution in CAMHB, TFA salt): 2 µg/mL; Minimum inhibitory concentration (MIC), Ec FADDI-EC003 ([2]; Enterobacter cloacae FADDI-EC003, broth microdilution in CAMHB, TFA salt): 1 µg/mL; Minimum inhibitory concentration (MIC), Ec FADDI-EC006 ([2]; Enterobacter cloacae FADDI-EC006, broth microdilution in CAMHB, TFA salt): 1 µg/mL; MIC ([3]; K. pneumoniae FADDI-KP032): 1 µg/mL (≈ 0.842 µM); MIC ([4]; P. aeruginosa ATCC 27853): 1 µg/mL (≈ 0.842 µM); Minimum inhibitory concentration (MIC), Pa ATCC 27853 ([4]; Pseudomonas aeruginosa ATCC 27853, broth microdilution in CAMHB, TFA salt): 1 µg/mL; Minimum inhibitory concentration (MIC), Pa FADDI-PA022 ([4]; Pseudomonas aeruginosa FADDI-PA022, broth microdilution in CAMHB, TFA salt): 2 µg/mL; Minimum inhibitory concentration (MIC), Pa FADDI-PA025 ([4]; Pseudomonas aeruginosa FADDI-PA025, broth microdilution in CAMHB, TFA salt): 1 µg/mL
